# Experiments:
# Format in all cases: cell-based, mouse
# [1] = system: α7 integrin (LacZ reporter in α7+/LacZ myotubes); assay: Myotube α7 integrin FDG assay (Burkin assay in myotubes, 96-well); details: for Burkin Assay in Myotubes, value relative to DMSO: SU9516 analogs, 96-well, N=3-6
# [2] = system: α7 integrin (LacZ reporter in α7βgal+/− myoblasts); assay: Myoblast α7+/LacZ integrin FDG assay (Burkin assay in myoblasts, 96-well); details: 96-well; for Burkin Assay in Myoblasts, signal relative to DMSO: α7+/LacZ myoblasts; for Burkin Assay in Myoblasts, value relative to DMSO: SU9516 analogs, N=3-6
# [3] = system: β-galactosidase in CMV-LacZ C2C12 myoblasts; assay: CMV-LacZ secondary screen in C2C12 myoblasts (β-Gal stabilizing assay); details: for CMV-LACZ in Myoblasts (β-galactosidase activity relative to DMSO): CMV-LacZ C2C12 myoblasts; for CMV-LACZ in Myoblasts, value relative to DMSO: SU9516 analogs, C2C12 CMV-LacZ, N=2
# Procedure, shortened: (§1)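 Dose-response runs at 0.5–40 μM (0.5, 1, 5, 10, 20, 40 μM; N=2 per point) used a clonal C2C12 line carrying CMV-LacZ. Cells were assayed as myoblasts or as differentiated myotubes, and β-galactosidase levels were read with the FDG fluorogenic substrate.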
# [4] = system: β-galactosidase in CMV-LacZ C2C12 myotubes; assay: CMV-LacZ secondary screen in C2C12 myotubes (β-Gal stabilizing assay); details: for CMV-LACZ in Myotubes, signal relative to DMSO: C2C12 CMV-LacZ myotubes, fold relative to DMSO; for CMV-LACZ in Myotubes, value relative to DMSO: SU9516 analogs, C2C12 CMV-LacZ, N=2
# Procedure, shortened: as §1
smiles,measurement,setting,value
CC1CCCCC1NC(=O)CSc1nnc(COc2ccc(Cl)cc2)o1 (centres unmarked) [MLS000948055-01],"Burkin Assay in Myotubes, α7 integrin LacZ reporter signal relative to DMSO",[1]; 0.5 uM,1.067
same,"Burkin Assay in Myotubes, α7 integrin LacZ reporter signal relative to DMSO",[1]; 1 uM,1.054
same,"Burkin Assay in Myotubes, α7 integrin LacZ reporter signal relative to DMSO",[1]; 5 uM,0.9053
same,"Burkin Assay in Myotubes, α7 integrin LacZ reporter signal relative to DMSO",[1]; 10 uM,0.8264
same,"Burkin Assay in Myotubes, α7 integrin LacZ reporter signal relative to DMSO",[1]; 20 uM,0.98
same,"Burkin Assay in Myotubes, α7 integrin LacZ reporter signal relative to DMSO",[1]; 40 uM,0.7514
same,"Burkin Assay in Myoblasts, signal relative to DMSO",[2]; 0.5 uM,1.328
same,"Burkin Assay in Myoblasts, signal relative to DMSO",[2]; 1 uM,1.053
same,"Burkin Assay in Myoblasts, signal relative to DMSO",[2]; 5 uM,1.136
same,"Burkin Assay in Myoblasts, signal relative to DMSO",[2]; 10 uM,0.8986
same,"Burkin Assay in Myoblasts, signal relative to DMSO",[2]; 20 uM,0.8213
same,"Burkin Assay in Myoblasts, signal relative to DMSO",[2]; 40 uM,0.5867
same,CMV-LACZ in Myoblasts (β-galactosidase activity relative to DMSO),[3]; 0.5 uM,0.7540
same,CMV-LACZ in Myoblasts (β-galactosidase activity relative to DMSO),[3]; 1 uM,0.9674
same,CMV-LACZ in Myoblasts (β-galactosidase activity relative to DMSO),[3]; 5 uM,1.0787
same,CMV-LACZ in Myoblasts (β-galactosidase activity relative to DMSO),[3]; 10 uM,1.0993
same,CMV-LACZ in Myoblasts (β-galactosidase activity relative to DMSO),[3]; 20 uM,0.5407
same,CMV-LACZ in Myoblasts (β-galactosidase activity relative to DMSO),[3]; 40 uM,0.5522
same,"CMV-LACZ in Myotubes, signal relative to DMSO",[4]; 0.5 uM,1.0895
same,"CMV-LACZ in Myotubes, signal relative to DMSO",[4]; 1 uM,0.9638
same,"CMV-LACZ in Myotubes, signal relative to DMSO",[4]; 5 uM,1.2519
same,"CMV-LACZ in Myotubes, signal relative to DMSO",[4]; 10 uM,1.1022
same,"CMV-LACZ in Myotubes, signal relative to DMSO",[4]; 20 uM,1.2212
same,"CMV-LACZ in Myotubes, signal relative to DMSO",[4]; 40 uM,1.0753
COC(=O)c1ccccc1NC(=O)CSc1nc(O)c(-c2ccccc2)c(=O)[nH]1 [MLS000621451-01],"Burkin Assay in Myotubes, α7 integrin LacZ reporter signal relative to DMSO",[1]; 0.5 uM,0.9471
same,"Burkin Assay in Myotubes, α7 integrin LacZ reporter signal relative to DMSO",[1]; 1 uM,0.8932
same,"Burkin Assay in Myotubes, α7 integrin LacZ reporter signal relative to DMSO",[1]; 5 uM,0.9254
same,"Burkin Assay in Myotubes, α7 integrin LacZ reporter signal relative to DMSO",[1]; 10 uM,1.071
same,"Burkin Assay in Myotubes, α7 integrin LacZ reporter signal relative to DMSO",[1]; 20 uM,0.8327
same,"Burkin Assay in Myotubes, α7 integrin LacZ reporter signal relative to DMSO",[1]; 40 uM,1.024
same,"Burkin Assay in Myoblasts, signal relative to DMSO",[2]; 0.5 uM,1.065
same,"Burkin Assay in Myoblasts, signal relative to DMSO",[2]; 1 uM,1.018
same,"Burkin Assay in Myoblasts, signal relative to DMSO",[2]; 5 uM,1.066
same,"Burkin Assay in Myoblasts, signal relative to DMSO",[2]; 10 uM,1.114
same,"Burkin Assay in Myoblasts, signal relative to DMSO",[2]; 20 uM,1.0713
same,"Burkin Assay in Myoblasts, signal relative to DMSO",[2]; 40 uM,1.088
same,CMV-LACZ in Myoblasts (β-galactosidase activity relative to DMSO),[3]; 0.5 uM,1.0388
same,CMV-LACZ in Myoblasts (β-galactosidase activity relative to DMSO),[3]; 1 uM,1.1579
same,CMV-LACZ in Myoblasts (β-galactosidase activity relative to DMSO),[3]; 5 uM,0.9255
same,CMV-LACZ in Myoblasts (β-galactosidase activity relative to DMSO),[3]; 10 uM,1.3023
same,CMV-LACZ in Myoblasts (β-galactosidase activity relative to DMSO),[3]; 20 uM,1.2493
same,CMV-LACZ in Myoblasts (β-galactosidase activity relative to DMSO),[3]; 40 uM,1.1926
same,"CMV-LACZ in Myotubes, signal relative to DMSO",[4]; 0.5 uM,1.1114
same,"CMV-LACZ in Myotubes, signal relative to DMSO",[4]; 1 uM,0.9295
same,"CMV-LACZ in Myotubes, signal relative to DMSO",[4]; 5 uM,1.0177
same,"CMV-LACZ in Myotubes, signal relative to DMSO",[4]; 10 uM,1.1398
same,"CMV-LACZ in Myotubes, signal relative to DMSO",[4]; 20 uM,0.9853
same,"CMV-LACZ in Myotubes, signal relative to DMSO",[4]; 40 uM,0.9695
CN1C(=O)N(CC(=O)N2CCN(S(=O)(=O)c3ccc(Cl)s3)CC2)C(=O)C12CCCCC2 [MLS002162890-01],"Burkin Assay in Myotubes, α7 integrin LacZ reporter signal relative to DMSO",[1]; 0.5 uM,1.051
same,"Burkin Assay in Myotubes, α7 integrin LacZ reporter signal relative to DMSO",[1]; 1 uM,1.185
same,"Burkin Assay in Myotubes, α7 integrin LacZ reporter signal relative to DMSO",[1]; 5 uM,0.9351
same,"Burkin Assay in Myotubes, α7 integrin LacZ reporter signal relative to DMSO",[1]; 10 uM,1.1501
same,"Burkin Assay in Myotubes, α7 integrin LacZ reporter signal relative to DMSO",[1]; 20 uM,0.7452
same,"Burkin Assay in Myotubes, α7 integrin LacZ reporter signal relative to DMSO",[1]; 40 uM,0.803
same,"Burkin Assay in Myoblasts, signal relative to DMSO",[2]; 0.5 uM,1.107
same,"Burkin Assay in Myoblasts, signal relative to DMSO",[2]; 1 uM,1.034
same,"Burkin Assay in Myoblasts, signal relative to DMSO",[2]; 5 uM,1.1338
same,"Burkin Assay in Myoblasts, signal relative to DMSO",[2]; 10 uM,1.261
same,"Burkin Assay in Myoblasts, signal relative to DMSO",[2]; 20 uM,0.694
same,"Burkin Assay in Myoblasts, signal relative to DMSO",[2]; 40 uM,0.4924
same,CMV-LACZ in Myoblasts (β-galactosidase activity relative to DMSO),[3]; 0.5 uM,0.8392
same,CMV-LACZ in Myoblasts (β-galactosidase activity relative to DMSO),[3]; 1 uM,0.8713
same,CMV-LACZ in Myoblasts (β-galactosidase activity relative to DMSO),[3]; 5 uM,0.9701
same,CMV-LACZ in Myoblasts (β-galactosidase activity relative to DMSO),[3]; 10 uM,0.9939
same,CMV-LACZ in Myoblasts (β-galactosidase activity relative to DMSO),[3]; 20 uM,0.7603
same,CMV-LACZ in Myoblasts (β-galactosidase activity relative to DMSO),[3]; 40 uM,0.9507
same,"CMV-LACZ in Myotubes, signal relative to DMSO",[4]; 0.5 uM,1.0682
same,"CMV-LACZ in Myotubes, signal relative to DMSO",[4]; 1 uM,1.0191
same,"CMV-LACZ in Myotubes, signal relative to DMSO",[4]; 5 uM,1.1237
same,"CMV-LACZ in Myotubes, signal relative to DMSO",[4]; 10 uM,1.0530
same,"CMV-LACZ in Myotubes, signal relative to DMSO",[4]; 20 uM,1.0140
same,"CMV-LACZ in Myotubes, signal relative to DMSO",[4]; 40 uM,1.0170
Cc1cc(C)c(/C=C2\C(=O)Nc3ccccc32)[nH]1 [NCGC00094381-05],"Burkin Assay in Myotubes, value relative to DMSO",[1]; 0.5 uM,0.9234
same,"Burkin Assay in Myotubes, value relative to DMSO",[1]; 1 uM,0.931
same,"Burkin Assay in Myotubes, value relative to DMSO",[1]; 5 uM,1.047
same,"Burkin Assay in Myotubes, value relative to DMSO",[1]; 10 uM,1.319
same,"Burkin Assay in Myotubes, value relative to DMSO",[1]; 20 uM,1.05
same,"Burkin Assay in Myotubes, value relative to DMSO",[1]; 40 uM,1.138
same,"Burkin Assay in Myoblasts, value relative to DMSO",[2]; 0.5 uM,0.9433
same,"Burkin Assay in Myoblasts, value relative to DMSO",[2]; 1 uM,0.9804
same,"Burkin Assay in Myoblasts, value relative to DMSO",[2]; 5 uM,0.7532
same,"Burkin Assay in Myoblasts, value relative to DMSO",[2]; 10 uM,0.7145
same,"Burkin Assay in Myoblasts, value relative to DMSO",[2]; 20 uM,0.8879
same,"Burkin Assay in Myoblasts, value relative to DMSO",[2]; 40 uM,0.7578
same,"CMV-LACZ in Myoblasts, value relative to DMSO",[3]; 0.5 uM,0.8383
same,"CMV-LACZ in Myoblasts, value relative to DMSO",[3]; 5 uM,0.9614
same,"CMV-LACZ in Myoblasts, value relative to DMSO",[3]; 10 uM,0.8606
same,"CMV-LACZ in Myoblasts, value relative to DMSO",[3]; 20 uM,0.7147
same,"CMV-LACZ in Myoblasts, value relative to DMSO",[3]; 40 uM,0.8220
same,"CMV-LACZ in Myotubes, value relative to DMSO",[4]; 0.5 uM,1.0045
same,"CMV-LACZ in Myotubes, value relative to DMSO",[4]; 1 uM,0.8773
same,"CMV-LACZ in Myotubes, value relative to DMSO",[4]; 5 uM,1.2069
same,"CMV-LACZ in Myotubes, value relative to DMSO",[4]; 10 uM,2.8305
same,"CMV-LACZ in Myotubes, value relative to DMSO",[4]; 20 uM,6.8950
same,"CMV-LACZ in Myotubes, value relative to DMSO",[4]; 40 uM,18.0610

# — patent US9980943B2, “Methods of treating muscular dystrophy” (BOARD OF REGENTS OF THE NEVADA SYSTEM OF HIGHER EDUCATION, …, priority 2013, dated 2018)
